Assay results as given in patent US20180064635A1, “COSMETIC COMPOSITION COMPRISING SLIME OF SNAIL FED WITH BERRY FRUITS AND PREPARATION METHOD THEREOF” (CREALAND CO., LTD, priority 2015, published 2018).

Tests used:
[1] = Skin moisturizing effect, capacitance measurement on flexor surface of the forearm; assay type: in vivo, human (30 females in their 20s and 30s); conditions: 1 wt % aqueous solution, 2.0 mg/cm2
Description: Measurement of moisturizing effect of snail slime filtrates prepared in Examples 1 and 2 and Comparative Examples 1 and 2 was carried out by a capacitance measurement scheme using an oil and moisture analyzer (WSK-P500U, Inforward. Inc., Japan). 1 wt % an aqueous solution of the snail slime filtrates prepared in Examples 1 and 2 and Comparative Examples 1 and 2 was compared with 1 wt % aqueous solution of hyaluronic acid sodium salt (Sigma) which is known to be excellent in a skin moisturizing effect based on various studies.
30 females in their 20s and 30s were targeted, a flexor surface of the forearm was allowed to acclimate to a constant temperature and humidity chamber (22° C. and 40-60% of relative humidity) for 20 minutes right before the test starts, and the moisture of the skin was constantly maintained. Then, after measuring the initial moisture content of an application site of each sample using the oil and moisture analyzer (WSK-P500U, Inforward. Inc., Japan), each of the samples at 2.0 mg/cm2 was applied at a different position for each examinee to minimize an error according to the flexor surface of the forearm. The skin moisture was firstly measured at time intervals of 10 minutes, 30 minutes, 50 minutes, 90 minutes, and 120 minutes after the application, and after 2 hours, the skin moisture was measured again.
Each measurement site was measured repeatedly for three times and skin moisture was calculated by the average value.

[2] = Active oxygen scavenging test (xanthine/xanthine oxidase, NBT); assay type: biochemical; conditions: snail slime filtrates, absorbance 540 nm
Description: In the active oxygen scavenging test, changes on the absorbance are measured using the oxidation of nitroblue tetrazolium (NBT) by active oxygen by using active oxygen generation upon enzymatic reaction of xanthine/xanthine oxidase (Sigma), thus the scavenging ability of the active oxygen can be confirmed.
2.4 ml of sodium carbonate (Na2CO3), 0.1 ml of xanthine (Sigma), 0.1 ml of ethylene diamine tetra acetic acid (EDTA), 0.1 ml of bovine serum albumin (BSA, Sigma), 0.1 ml of NBT, and 1 ml of the snail slime filtrates prepared in Examples 1 and 2 and Comparative Examples 1 and 2 were added, vortexing was carried out by using a vortex mixer (Type 37600 Mixer, Mini mix, USA), the mixture was left at 25° C. for 10 minutes. After 0.1 ml of xanthine oxidase was added and reacted at 25° C. for 20 minutes, the reaction was stopped by inputting 6 mM of CuCl2, and the absorbance was measured at the wavelength of 540 nm by using a microplate reader (UVT-06685, Thermo max, USA).
The control group in the active oxygen scavenging activity test was measured in the same manner by inputting third distilled water instead of the sample solution. […]
Active oxygen scavenging rate (%)=100−((absorbance of sample/absorbance of control group)×100)

[3] = Free radical scavenging test (DPPH); assay type: biochemical; conditions: snail slime filtrates, 37° C. 15 minutes, absorbance 540 nm
Description: A free radical scavenging test and a reactive oxygen scavenging test were performed in order to confirm the antioxidant effect of the snail slime filtrates prepared in Examples 1 and 2 and Comparative Examples 1 and 2, as a verifying test for a skin aging improvement effect.
The snail slime filtrates prepared in the above Examples 1 and 2 and Comparative Examples 1 and 2 were diluted with methanol in a predetermined concentration, and 1 ml of the dilution was mixed with 1 ml of a 0.1 mM 2,2-diphenyl-1-picryl-hydrazyl radical (DPPH, Sigma) solution. After the mixture leaves at 37° C. for 15 minutes, the absorbance was measured at the wavelength of 540 nm by using a microplate reader (Thermo max, USA).
In the above free radical scavenging test, the control group was measured In the same manner by inputting 1 ml of DPPH and 1 ml of methanol, and color correction values were obtained with respect to each of the sample and the control group by inputting 1 ml of methanol and 1 ml of sample.
SC50 is the concentration of the sample required to scavenge 50% of the free radicals, and the smaller value indicates the higher antioxidant activity.
Free radical scavenging rate (%)=100−((absorbance of sample/absorbance of control group)×100)

Molecule	Moisture content subject to time after application ([1]; 10 minutes after application)	Moisture content subject to time after application ([1]; 30 minutes after application)	Moisture content subject to time after application ([1]; 50 minutes after application)	Moisture content subject to time after application ([1]; 90 minutes after application)	Moisture content subject to time after application ([1]; 120 minutes after application)	Active oxygen scavenging rate IC50 [2]	Free radical scavenging rate SC50 [3]
hyaluronic acid sodium salt	61.31 A.U	58.24 A.U	57.21 A.U	55.87 A.U	52.11 A.U	–	–
Cc1cc(C(C)(C)C)c(O)c(C(C)(C)C)c1 [BHT]	–	–	–	–	–	154 ppm	125 ppm
